Assay: xn = mol fraction of the nth substance listed
Conditions: 100 kPa, Liquid; for viscosity: Concentric cylinders viscometry; for mass density: Vibrating tube method

CCCCOC(C)=O [butyl ethanoate] + CCCCCCO
Conditions | mass density [kg/m3] | viscosity [mPa·s]
293.15 K, x1 = 0.0811 | 823.6 | 4.7
293.15 K, x1 = 0.1602 | 828.4 | 4.14
293.15 K, x1 = 0.2398 | 833.3 | 3.64
293.15 K, x1 = 0.3507 | 840.1 | 3.04
293.15 K, x1 = 0.4402 | 845.7 | 2.63
293.15 K, x1 = 0.5596 | 853.1 | 2.16
293.15 K, x1 = 0.6504 | 858.9 | 1.84
293.15 K, x1 = 0.7398 | 864.5 | 1.55
293.15 K, x1 = 0.8507 | 871.6 | 1.2
293.15 K, x1 = 0.9397 | 877.2 | 0.92
293.15 K, x1 = 1 | 881.1 | 0.732
298.15 K, x1 = 0.0811 | 819.8 | 3.99
298.15 K, x1 = 0.1602 | 824.4 | 3.5
298.15 K, x1 = 0.2398 | 829.1 | 3.06
298.15 K, x1 = 0.3507 | 835.8 | 2.56
298.15 K, x1 = 0.4402 | 841.2 | 2.22
298.15 K, x1 = 0.5596 | 848.5 | 1.82
298.15 K, x1 = 0.6504 | 854 | 1.56
298.15 K, x1 = 0.7398 | 859.6 | 1.32
298.15 K, x1 = 0.8507 | 866.5 | 1.05
298.15 K, x1 = 0.9397 | 872.1 | 0.83
298.15 K, x1 = 1 | 876 | 0.677
303.15 K, x1 = 0.0811 | 815.9 | 3.41
303.15 K, x1 = 0.1602 | 820.3 | 2.99
303.15 K, x1 = 0.2398 | 824.8 | 2.61
303.15 K, x1 = 0.3507 | 831.2 | 2.18
303.15 K, x1 = 0.4402 | 836.5 | 1.89
303.15 K, x1 = 0.5596 | 843.6 | 1.56
303.15 K, x1 = 0.6504 | 849.1 | 1.34
303.15 K, x1 = 0.7398 | 854.5 | 1.15
303.15 K, x1 = 0.8507 | 861.3 | 0.93
303.15 K, x1 = 0.9397 | 866.9 | 0.76
303.15 K, x1 = 1 | 870.9 | 0.628
308.15 K, x1 = 0.0811 | 812 | 2.94
308.15 K, x1 = 0.1602 | 816.2 | 2.57
308.15 K, x1 = 0.2398 | 820.6 | 2.24
308.15 K, x1 = 0.3507 | 826.7 | 1.86
308.15 K, x1 = 0.4402 | 831.8 | 1.61
308.15 K, x1 = 0.5596 | 838.7 | 1.33
308.15 K, x1 = 0.6504 | 844 | 1.16
308.15 K, x1 = 0.7398 | 849.4 | 1
308.15 K, x1 = 0.8507 | 856.2 | 0.82
308.15 K, x1 = 0.9397 | 861.7 | 0.69
308.15 K, x1 = 1 | 865.7 | 0.585
313.15 K, x1 = 0.0811 | 808 | 2.54
313.15 K, x1 = 0.1602 | 811.9 | 2.21
313.15 K, x1 = 0.2398 | 816 | 1.93
313.15 K, x1 = 0.3507 | 821.8 | 1.61
313.15 K, x1 = 0.4402 | 826.7 | 1.41
313.15 K, x1 = 0.5596 | 833.5 | 1.18
313.15 K, x1 = 0.6504 | 838.8 | 1.04
313.15 K, x1 = 0.7398 | 844.1 | 0.92
313.15 K, x1 = 0.8507 | 850.9 | 0.76
313.15 K, x1 = 0.9397 | 856.4 | 0.63
313.15 K, x1 = 1 | 860.5 | 0.546
318.15 K, x1 = 0.0811 | 804.2 | 2.21
318.15 K, x1 = 0.1602 | 807.9 | 1.92
318.15 K, x1 = 0.2398 | 811.7 | 1.68
318.15 K, x1 = 0.3507 | 817.4 | 1.4
318.15 K, x1 = 0.4402 | 822.1 | 1.23
318.15 K, x1 = 0.5596 | 828.6 | 1.05
318.15 K, x1 = 0.6504 | 833.8 | 0.93
318.15 K, x1 = 0.7398 | 839 | 0.83
318.15 K, x1 = 0.8507 | 845.7 | 0.7
318.15 K, x1 = 0.9397 | 851.2 | 0.59
318.15 K, x1 = 1 | 855.3 | 0.512
323.15 K, x1 = 0.0811 | 800.1 | 1.96
323.15 K, x1 = 0.1602 | 803.5 | 1.71
323.15 K, x1 = 0.2398 | 807.2 | 1.49
323.15 K, x1 = 0.3507 | 812.5 | 1.25
323.15 K, x1 = 0.4402 | 817.1 | 1.09
323.15 K, x1 = 0.5596 | 823.5 | 0.93
323.15 K, x1 = 0.6504 | 828.6 | 0.83
323.15 K, x1 = 0.7398 | 833.8 | 0.75
323.15 K, x1 = 0.8507 | 840.4 | 0.65
323.15 K, x1 = 0.9397 | 846 | 0.56
323.15 K, x1 = 1 | 850.1 | 0.485
